# Data from patent US20040043959A1, “Combination therapies for treating methylthioadenosine phosphorylase deficient cells” (priority 2002, published 2004).
# Molecular target: T1, Human MTAP (Homo sapiens, UniProt Q13126)
# T1 construct: six-histidine tag (His6) (N); made in house; host or cells: E. coli BL21 DE3
# T1 sequence (Q13126 1-283): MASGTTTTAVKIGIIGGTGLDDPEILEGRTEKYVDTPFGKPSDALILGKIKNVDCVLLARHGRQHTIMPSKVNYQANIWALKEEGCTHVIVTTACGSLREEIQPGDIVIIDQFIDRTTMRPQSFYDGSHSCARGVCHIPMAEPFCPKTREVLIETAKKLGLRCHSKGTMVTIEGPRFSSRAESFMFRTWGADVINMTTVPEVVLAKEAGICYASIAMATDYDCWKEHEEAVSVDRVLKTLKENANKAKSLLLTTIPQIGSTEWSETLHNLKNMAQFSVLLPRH
# Experiment: MTAP substrate assay, coupled spectrophotometric (adenine, xanthine oxidase)
# Format: biochemical
# Conditions: 2 nM MTAP; for activity at 50 µM: 10 min, compound 50 uM, relative to MTA at 50 uM, read-out: MT-A—50: initial velocity as a percentage of the initial velocity with MTA as substrate; for MT-A—10: initial velocity as a percentage of the initial velocity with MTA as substrate: compound 10 uM, relative to MTA at 10 uM
# Summary of the method: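 Detection was xanthine oxidase-coupled (0.8 units/ml), reading adenine-derived absorbance at 305 nm over 10 min in potassium phosphate/DTT buffer at 37° C, with N-His6 enzyme purified from E. coli.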
SMILES,activity at 50 µM,MT-A—10: initial velocity as a percentage of the initial velocity with MTA as substrate
"Nc1ncnc2c1ncn2[C@@H]1O[C@H](CSCc2csc3ccccc23)[C@@H](O)[C@H]1O [2(G)(93), (2R, 3R, 4S, 5S)-2-(6-amino-9H-purin-9-yl)-5-{[(1-benzothien-3-ylmethyl)thio]methyl}tetrahydrofuran-3,4-diol]",17%,18%
"Nc1ncnc2c1ncn2[C@@H]1O[C@H](CSc2nccnc2CCc2ccccc2)[C@@H](O)[C@H]1O [2(G)(94), (2R, 3R, 4S, 5S)-2-(6-amino-9H-purin-9-yl)-5-({[3-(2-phenylethyl)-pyrazin-2-yl]thio}methyl)tetrahydrofuran-3,4-diol]",5%,5%
"Nc1ncnc2c1ncn2[C@@H]1O[C@H](CSc2ccc(C(=O)O)cc2)[C@@H](O)[C@H]1O [2(G)(95), 4-({[(2S, 3S, 4R, 5R)-5-(6-amino-9H-purin-9-yl)-3,4-dihydroxytetrahydro-furan-2-yl]methyl}thio)-benzoic acid]",7%,7%
"Nc1ncnc2c1ncn2[C@@H]1O[C@H](CSc2ccccc2Cl)[C@@H](O)[C@H]1O [2(G)(96), (2R, 3R, 4S, 5S)-2-(6-amino-9H-purin-9-yl)-5-{((2-chlorophenyl)thio]-methyl}tetrahydrofuran-3,4-diol]",6%,5%
"Nc1ncnc2c1ncn2[C@@H]1O[C@H](CSc2cc(Cl)ccc2Cl)[C@@H](O)[C@H]1O [2(G)(97), (2R, 3R, 4S, 5S)-2-(6-amino-9H-purin-9-yl)-5-{[(2,5-dichlorophenyl)-thio]methyl}tetrahydro-furan-3,4-diol]",6%,5%
"Nc1ncnc2c1ncn2[C@@H]1O[C@H](CSc2cccc(Cl)c2)[C@@H](O)[C@H]1O [2(G)(98), (2R, 3R, 4S, 5S)-2-(6-amino-9H-purin-9-yl)-5-{[(3-chlorophenyl)thio]-methyl}tetrahydrofuran-3,4-diol]",18%,20%
"Nc1ncnc2c1ncn2[C@@H]1O[C@H](CSc2cccc(C(F)(F)F)c2)[C@@H](O)[C@H]1O [2(G)(99), (2R, 3R,4S, 5S)-2-(6-amino-9H-purin-9-yl)-5-({[3-(trifluoromethyl)-phenyl]thio}methyl)-tetrahydrofuran-3,4-diol]",18%,17%
"Cc1nccnc1SC[C@H]1O[C@@H](n2cnc3c(N)ncnc32)[C@H](O)[C@@H]1O [2(G)(100), (2R, 3R, 4S, 5S)-2-(6-amino-9H-purin-9-yl)-5-{[(3-methylpyrazin-2-yl)thio]methyl}tetrahydro-furan-3,4-diol]",10%,7%
"Nc1ncnc2c1ncn2[C@@H]1O[C@H](CSc2cccc(O)c2)[C@@H](O)[C@H]1O [2(G)(101), (2R, 3R, 4S, 5S)-2-(6-amino-9H-purin-9-yl)-5-{[(3-hydroxyphenyl)-thio]methyl}tetrahydro-furan-3,4-diol]",38%,36%
"Nc1ncnc2c1ncn2[C@@H]1O[C@H](CSc2c(Cl)cccc2Cl)[C@@H](O)[C@H]1O [2(G)(102), (2R, 3R, 4S, 5S)-2-(6-amino-9H-purin-9-yl)-5-{[(2,6-dichIorophenyl)-thio]methyl}tetrahydro-furan-3,4-diol]",3%,2%
"Nc1ncnc2c1ncn2[C@@H]1O[C@H](CSc2ccc(C(F)(F)F)cc2[N+](=O)[O-])[C@@H](O)[C@H]1O [2(G)(103), (2R, 3R, 4S, 5S)-2-(6-amino-9H-purin-9-yl)-5-({[2-nitro-4-(trifluoromethyl)phenyl]thio}methyl)tetrahydro-furan-3,4-diol]",4%,3%
"Nc1ncnc2c1ncn2[C@@H]1O[C@H](CSCC(=O)Nc2ccccc2)[C@@H](O)[C@H]1O [2(G)(104), 2-({[(2S, 3S, 4R, 5R)-5-(6-amino-9H-purin-9-yl)-3,4-dihydroxytetrahydro-furan-2-yl]methyl}thio)-N-phenylacetamide]",15%,5%
"Nc1ncnc2c1ncn2[C@@H]1O[C@H](CSc2ccc([N+](=O)[O-])cn2)[C@@H](O)[C@H]1O [2(G)(105), (2R, 3R, 4S, 5S)-2-(6-amino-9H-purin-9-yl)-5-{[(5-nitropyridin-2-yl)thio]methyl}tetrahydro-furan-3,4-diol]",21%,17%
"Nc1ncnc2c1ncn2[C@@H]1O[C@H](CSc2c[nH]c3ccccc23)[C@@H](O)[C@H]1O [2(G)(106), (2R, 3R, 4S, 5S)-2-(6-amino-9H-purin-9-yl)-5-[(1H-indol-3-ylthio)-methyl]-tetrahydrofuran-3,4-diol]",3%,6%
"COC(=O)c1ccccc1SC[C@H]1O[C@@H](n2cnc3c(N)ncnc32)[C@H](O)[C@@H]1O [2(G)(107), methyl 2-({[(2S, 3S, 4R, 5R)-5-(6-amino-9H-purin-9-yl)-3,4-dihydroxy-tetrahydrofuran-2-yl]-methyl}thio)-benzoate]",2%,4%
"Nc1ncnc2c1ncn2[C@@H]1O[C@H](CSc2ccc(/C=C/C(=O)O)cc2)[C@@H](O)[C@H]1O [2(G)(108), (2E)-3-[4-({[(2S, 3S, 4R, 5R)-5-(6-amino-9H-purin-9-yl)-3,4-dihydroxytetra-hydrofuran-2-yl]methyl}thio)phenyl]acrylic acid]",19%,8%
"COC(=O)c1cccc(SC[C@H]2O[C@@H](n3cnc4c(N)ncnc43)[C@H](O)[C@@H]2O)c1 [2(G)(109), methyl 3-({[(2S, 3S, 4R, 5R)-5-(6-amino-9H-purin-9-yl)-1,3,4-dihydroxytetra-hydrofuran-2-yl]methyl}thio)benzoate]",8%,8%
"COC(=O)/C=C/c1ccc(SC[C@H]2O[C@@H](n3cnc4c(N)ncnc43)[C@H](O)[C@@H]2O)cc1 [2(G)(110), methyl (2E)-3-[4-({[(2S, 3S, 4R, 5R)-5-(6-amino-9H-purin-9-yl)-dihydroxy-tetrahydrofuran-2-yl]-methyl}thio)phenyl]-acrylate]",9%,15%
"COc1cccc(-c2nnc(SC[C@H]3O[C@@H](n4cnc5c(N)ncnc54)[C@H](O)[C@@H]3O)n2C)c1 [2(G)(111), (2R, 3R, 4S, 5S)-2-(6-amino-9H-purin-9-yl)-5-({[5-(3-methoxyphenyl)-4-methyl-4H-1,2,4-triazol-3-yl]thio}-methyl)tetrahydrofuran-3,4-diol]",4%,8%
"Nc1ncnc2c1ncn2[C@@H]1O[C@H](CSc2nccc(-c3ccco3)n2)[C@@H](O)[C@H]1O [2(G)(112), (2R, 3R, 4S, 5S)-2-(6-amino-9H-purin-9-yl)-5-({[4-(2-furyl)pyrimidin-2-yl]thio}methyl)tetrahydro-furan-3,4-diol]",10%,17%
"Cn1c(SC[C@H]2O[C@@H](n3cnc4c(N)ncnc43)[C@H](O)[C@@H]2O)nc2ccccc21 [2(G)(113), (2R, 3R, 4S, 5S)-2-(6-amino-9H-purin-9-yl)-5-{[(1-methyl-1H-benzimidazol-2-yl)thio]-methyl}tetrahydro-furan-3,4-diol]",43%,48%
"CC(=O)NCCSC[C@H]1O[C@@H](n2cnc3c(N)ncnc32)[C@H](O)[C@@H]1O [2(G)(114), N-[2-({[(2S, 3S, 4R, 5R)-5-(6-amino-9H-purin-9-yl)-3,4-dihydroxytetra-hydrofuran-2-yl]methyl}thio)ethyl]acetamide]",11%,29%
"CSc1ccc(SC[C@H]2O[C@@H](n3cnc4c(N)ncnc43)[C@H](O)[C@@H]2O)cc1 [2(G)(115), (2R, 3R, 4S, 5S)-2-(6-amino-9H-purin-9-yl)-5-({[4-(methylthio)phenyl]-thio}methyl)tetrahydro-furan-3,4-diol]",15%,12%
"Nc1ncnc2c1ncn2[C@@H]1O[C@H](CSc2ccccc2OC(F)(F)F)[C@@H](O)[C@H]1O [2(G)(116), (2R, 3R, 4S, 5S)-2-(6-amino-9H-purin-9-yl)-5-({[2-(trifluoromethoxy)-phenyl]thio}methyl)tetra-hydrofuran-3,4-diol]",7%,3%
"Nc1ncnc2c1ncn2[C@@H]1O[C@H](CSc2ccccc2F)[C@@H](O)[C@H]1O [2(G)(117), (2R, 3R, 4S, 5S)-2-(6-amino-9H-purin-9-yl)-5-{[(2-fluorophenyl)thio)-methyl}tetrahydrofuran-3,4-diol]",28%,25%
